Results from patent publication US7122184B2, “Specific monoclonal antibody against terbinafine” (Novartis AG, priority 2000, dated 2006).
One block for each compound: values may come before it.

Key:
[1] = HPLC and UV detection of terbinafine metabolites in the nail matrix; conditions: HPLC with UV detection
Text: Thus, in relation to the cross-reactivities of the antibodies of the invention with the above metabolites (see Example 4), no detection interferences are likely to be encountered with terbinafine in nails.

[2] = system: purified antibodies from hybridoma cell line LAM-JA; experiment: Competitive ELISA for terbinafine derivatives (crossreactivity); assay type: binding, mice; conditions: for Inhibition (%) at terbinafine concentration (μg/ml) 0.0001: competitor 0.0001 μg/ml; for Inhibition (%) at terbinafine concentration (μg/ml) 0.0001 / Inhibition (%) at terbinafine concentration (μg/ml) 0.001 / Inhibition (%) at terbinafine concentration (μg/ml) 0.01 / Inhibition (%) at terbinafine concentration (μg/ml) 0.1 / Inhibition (%) at terbinafine concentration (μg/ml) 1 / Inhibition (%) at terbinafine concentration (μg/ml) 10: mAb LAM-JA binding to terbinafine-BSA conjugate; for Inhibition (%) at terbinafine concentration (μg/ml) 0.001: competitor 0.001 μg/ml; for Inhibition (%) at terbinafine concentration (μg/ml) 0.01: competitor 0.01 μg/ml; for Inhibition (%) at terbinafine concentration (μg/ml) 0.1: competitor 0.1 μg/ml; for Inhibition (%) at terbinafine concentration (μg/ml) 1: competitor 1 μg/ml; for Inhibition (%) at terbinafine concentration (μg/ml) 10: competitor 10 μg/ml; for % crossreactivity: relative to terbinafine at B/B0=50%, calculated from FIG. 1, mAb LAM-JA
Text: The antibodies of the invention are screened and characterized in conventional manner, e.g. according to their ability to distinguish between terbinafine and its metabolites and derivatives, e.g. by determination of relative cross-reactivity. […] (1994), Stockton Press, p. 89). Relative crossreactivity is the concentration of analyte giving 50% at the point where the reduction in signal corresponds to 50% of the signal achieved in the absence of analyte (ratio B/B0 of 50%), as a percentage of the analyte concentration giving the same fall in signal.
Microtiter plates are coated with 5 μg/ml terbinafine hydrochloride—protein (BSA) conjugate in carbonate buffer overnight at 4°, then saturated with blocking reagent [SuperBloc® buffer (Pierce)] and washed 3× with 0.05% (v/v) PBS-TWEEN® (polyoxyethylene 20 sorbitan monoleate). The hybridoma supernatants to be screened are diluted in a 1% (w/v) solution of BSA in PBS-TWEEN® (polyoxyethylene 20 sorbitan monoleate), and incubated for 2 hours at 37°. Level of bound antibody is measured by anti-mouse IgG rabbit immunoglobulin coupled to horseradish peroxidase with OPD as the substrate. After incubation for one hour at room temperature the enzymatic substrate is hydrolyzed and absorbance at 490/650 nm is measured after 15 minutes incubation in the dark.
The direct ELISA according to Example 3 above is converted to a competitive ELISA wherein a competitor is added to the monoclonal antibody solution, and binding of the mAB to the conjugate in the presence and absence of the competitor is measured. Standard curves to determine cross-reactivity of a selected antibody to terbinafine and its derivatives are prepared using solutions containing known concentrations of terbinafine and appropriate derivatives (e.g. 10 μ/ml to 0.0001 μg/ml in buffer).
The result of such competitive assay for the purified antibodies from hybridoma cell line LAM-JA (where the immunogen used was carboxy-terbinafine coupled to OVA), is as follows:
The measurement of antibody response to substances other than the analyte is the crossreactivity. It may be “expressed as the point where the reduction in signal corresponds to 50% of the signal achieved in the absence of analyte (B/B0=50%), as a percentage of the analyte concentration giving the same fall in signal” [The Immunoassay Handbook, David Wild, Stockton Press, USA, 1994].
% crossreactivity is calculated as follows from FIG. 1: […]

Structure (SMILES): CC(C)(C#C/C=C/CNCc1cccc2ccccc12)CO [Desmethyl-hydroxy-terbinafine, (E)-2,2-dimethyl-7-[(naphthalen-1-ylmethyl)amino]hept-5-en-3-yn-1-ol]
presence in the nail matrix [1]: no hint for the presence | Inhibition (%) at terbinafine concentration (μg/ml) 0.0001 [2]: 3.60% | Inhibition (%) at terbinafine concentration (μg/ml) 0.001 [2]: 0.79% | Inhibition (%) at terbinafine concentration (μg/ml) 0.01 [2]: 1.60% | Inhibition (%) at terbinafine concentration (μg/ml) 0.1 [2]: 5.30% | Inhibition (%) at terbinafine concentration (μg/ml) 1 [2]: 15.7% | Inhibition (%) at terbinafine concentration (μg/ml) 10 [2]: 58.0% | % crossreactivity [2]: 4.5%

Structure (SMILES): CC(C)(C#C/C=C/CNCc1cccc2ccccc12)C(=O)O [Desmethyl-carboxy-terbinafine, (E)-2,2-dimethyl-7-[(naphthalen-1-ylmethyl)amino]hept-5-en-3-ynoic acid]
Inhibition (%) at terbinafine concentration (μg/ml) 0.0001 [2]: 2.81% | Inhibition (%) at terbinafine concentration (μg/ml) 0.001 [2]: 1.38% | Inhibition (%) at terbinafine concentration (μg/ml) 0.01 [2]: 3.74% | Inhibition (%) at terbinafine concentration (μg/ml) 0.1 [2]: 4.40% | Inhibition (%) at terbinafine concentration (μg/ml) 1 [2]: 3.85% | Inhibition (%) at terbinafine concentration (μg/ml) 10 [2]: 12.1% | % crossreactivity [2]: not detectable

Structure (SMILES): CN(C/C=C/C#CC(C)(C)C)Cc1cccc2ccccc12 [Terbinafine ch, (E)-N-(6,6-dimethylhept-2-en-4-ynyl)-N-methyl-1-naphthalene methanamine]
Inhibition (%) at terbinafine concentration (μg/ml) 0.0001 [2]: 0.99% | Inhibition (%) at terbinafine concentration (μg/ml) 0.001 [2]: −1.92% | Inhibition (%) at terbinafine concentration (μg/ml) 0.01 [2]: 2.70% | Inhibition (%) at terbinafine concentration (μg/ml) 0.1 [2]: 31.5% | Inhibition (%) at terbinafine concentration (μg/ml) 1 [2]: 73.8% | Inhibition (%) at terbinafine concentration (μg/ml) 10 [2]: 92.6%

Structure (SMILES): CC(C)(C)C#C/C=C/CNCc1cccc2ccccc12 [Desmethyl-terbinafine ch, (E)-N-(6,6-dimethylhept-2-en-4-ynyl)-1-naphthalenemethanamine]
presence in the nail matrix [1]: measurable | Inhibition (%) at terbinafine concentration (μg/ml) 0.0001 [2]: −0.45% | Inhibition (%) at terbinafine concentration (μg/ml) 0.001 [2]: −0.14% | Inhibition (%) at terbinafine concentration (μg/ml) 0.01 [2]: 1.55% | Inhibition (%) at terbinafine concentration (μg/ml) 0.1 [2]: 1.22% | Inhibition (%) at terbinafine concentration (μg/ml) 1 [2]: 5.96% | Inhibition (%) at terbinafine concentration (μg/ml) 10 [2]: 7.87% | % crossreactivity [2]: not detectable

More lines, main results first:

presence in the nail matrix [1]: no hint for the presence
Structure (SMILES): CN(C/C=C/C#CC(C)(C)CO)Cc1cccc2ccccc12 [Hydroxy-terbinafine, (E)-2,2-dimethyl-7-[methyl(naphthalen-1-ylmethyl)amino]hept-5-en-3-yn-1-ol]
Inhibition (%) at terbinafine concentration (μg/ml) 0.0001 [2]: 0.40% | Inhibition (%) at terbinafine concentration (μg/ml) 0.001 [2]: 0.56% | Inhibition (%) at terbinafine concentration (μg/ml) 0.01 [2]: 3.74% | Inhibition (%) at terbinafine concentration (μg/ml) 0.1 [2]: 72.5% | Inhibition (%) at terbinafine concentration (μg/ml) 1 [2]: 92.9% | Inhibition (%) at terbinafine concentration (μg/ml) 10 [2]: 93.0%

presence in the nail matrix [1]: no hint for the presence
Structure (SMILES): CN(C/C=C/C#CC(C)(C)C(=O)O)Cc1cccc2ccccc12 [Carboxy-terbinafine, (E)-2,2-dimethyl-7-[methyl(naphthalen-1-ylmethyl)amino]hept-5-en-3-ynoic acid]
Inhibition (%) at terbinafine concentration (μg/ml) 0.0001 [2]: 0.85% | Inhibition (%) at terbinafine concentration (μg/ml) 0.001 [2]: 2.11% | Inhibition (%) at terbinafine concentration (μg/ml) 0.01 [2]: 4.30% | Inhibition (%) at terbinafine concentration (μg/ml) 0.1 [2]: 25.8% | Inhibition (%) at terbinafine concentration (μg/ml) 1 [2]: 63.8% | Inhibition (%) at terbinafine concentration (μg/ml) 10 [2]: 89.2%
